Data on 2 compounds can be found in article PMC5132081 (The Febs Journal, 2016).

The structures appear in SMILES notation. Like-named read-outs stand apart in the source and are kept apart here.

The target of experiment [1] is T1, CYP109E1 (Priestia megaterium, UniProt D5DKI8).
T1 sequence (D5DKI8 1-404): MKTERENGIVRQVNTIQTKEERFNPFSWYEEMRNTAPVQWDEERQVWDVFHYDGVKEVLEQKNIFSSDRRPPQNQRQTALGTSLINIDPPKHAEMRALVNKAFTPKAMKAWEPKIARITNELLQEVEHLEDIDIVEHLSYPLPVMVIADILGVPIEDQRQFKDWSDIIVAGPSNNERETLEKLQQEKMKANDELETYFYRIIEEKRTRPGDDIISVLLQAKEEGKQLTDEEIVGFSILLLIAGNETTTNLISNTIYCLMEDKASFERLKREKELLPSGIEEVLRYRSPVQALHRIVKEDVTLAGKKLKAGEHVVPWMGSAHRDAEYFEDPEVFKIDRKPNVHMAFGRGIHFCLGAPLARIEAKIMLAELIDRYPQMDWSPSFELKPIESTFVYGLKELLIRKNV
The experiment is described as follows: co-crystal structure. Type of experiment: binding.

In experiment [2] the target is CYP109E1 (Priestia megaterium, UniProt D5DKI8, E245A). Kind of experiment: in vitro turnover of purified mutant with Adx4-108/AdR, HPLC. It counts as biochemical.
For experiment [3], the target named is T1, CYP109E1. The experiment is described as follows: co-crystal structure. It counts as binding. This is another data set of the same source.
For experiment [4], the target named is CYP109E1 (Priestia megaterium, UniProt D5DKI8, K187A). The experiment is described as follows: in vitro turnover of purified mutant with Adx4-108/AdR, HPLC. It counts as biochemical.

Broadly, the Kd is a measure of binding affinity in units of concentration. Higher therefore signals weaker binding. In turn, `C[C@]12C[C@H](O)[C@H]3[C@@H](CCC4=CC(=O)CC[C@@]43C)[C@@H]1CC[C@@H]2C(=O)CO` [compound 4, corticosterone] came in with a Kd in experiment [1] of 91 ± 8 µM.

Consider `C[C@]12CC[C@H]3[C@@H](CCC4=CC(=O)CC[C@@]43C)[C@@H]1CC[C@@H]2O` [compound 11, testosterone], for which the figures for the “Catalytic activity for the formation of 16β-OH-TES, nmol.(nmol P450)^-1.min^-1” value in experiment [2] and in experiment [4] were 4.69 ± 0.04 nmol·(nmol P450)^−1·min^−1 and 1.43 ± 0.06 nmol·(nmol P450)^−1·min^−1, respectively. For the same compound, in experiment [3], the Kd worked out at 105 ± 10 µM.
